According to patent US12466839B2, “Allosteric AKT inhibitors for use in the treatment of Hereditary Hemorrhagic Telangiectasia” (VADERIS THERAPEUTICS AG, priority 2020, dated 2025):
pIC50: −log10 of the molar value.

How the values were obtained:
H1 = target: T1, H1 (Homo sapiens, UniProt P35367); assay: Millipore Drug Discovery Safety and Liability Panel; format: cell-based
T1 construct: purchased Millipore

TP = target: T2, TP (Homo sapiens, UniProt P21731); assay: as above; format: cell-based
T2 construct: Millipore

D5 = target: T3, D5 (Homo sapiens, UniProt P21918); assay: as above; format: cell-based
T3 construct: purchased Millipore

VPAC1 = target: T4, VPAC1 (Homo sapiens, UniProt P32241); assay: as above; format: cell-based
T4 construct: Millipore

MCF7 tumor cells = assay: IC50 in MCF7 tumor cells in vitro; format: cell-based; details: Homo sapiens
5-HT2C = target: T5, 5-HT2C (Homo sapiens, UniProt P28335); assay: Millipore Drug Discovery Safety and Liability Panel; format: cell-based
T5 construct: purchased Millipore

ETB = target: T6, ETB (Homo sapiens, UniProt P24530); assay: as above; format: cell-based
T6 construct: purchased Millipore

EP2 = target: T7, EP2 (Homo sapiens, UniProt P43116); assay: as above; format: cell-based
T7 construct: purchased Millipore

[1] = system: AVM formation in Eng-iKO mice; assay: Prevention of AVM formation in Eng-iKO mice (retinal vascular network); format: in vivo, mouse
Procedure: The Eng Flox/flox; cdh5-CreERT2 were injected with tamoxifen (50 μg) at P2 to […] once at P3, P4, P5 and P6. The same volume of vehicle was injected serving as control animals. Mice were then euthanized at P7 and retinas processed for immunofluorescence staining as described (Lebrin et al., as above).
The same volume of vehicle was injected serving as control animals. Mice were then euthanized at P7 and retinas processed for immunofluorescence staining as described (Lebrin et al., as above).
(§1) For the retinal vascular network, quantification of the number of AV shunts per mouse was done manually. […] A custom own-lab made macro allowed automatic processing of the images, using the same processing and quantification parameters. Briefly, the brightness of the images was enhanced by modifying the pixel extreme values, which depends on the specific image histogram content. A Gaussian filter was applied to reduce the intensity in homogeneities. The filter order depended on the image resolution. Next, the threshold step was computed, based on a global threshold technique such as Otsu's method or Li's method, resulting in binary image. A median filter was then applied to eliminate potential local irregularities, which could cause false branching point detection. From the binary images, the vascular density was quantified (calculated as the ratio of pixels associated with the vessels divided by the total number of pixels in the image). For the other parameters, a skeleton of the images was first computed using ImageJ, then the total vascular length was quantified using the Measure Skeleton Length plug-in from ImageJ. The number of branch points was extracted from the Analyze Skeleton plug-in of ImageJ. All results were transferred to Microsoft Office Excel software and automatically rearranged using a lab custom-made program. As all images generated at each step of the processing were saved, a visual control was made to ensure that there were no aberrant results.
(§2) Statistical analysis was performed with Prism 7 software (GraphPad). For most of the experiments, 1-way ANOVA was used for multiple comparisons. Results are expressed as mean±SEM. For post hoc pairwise, the Dunnett's test was used. A value of *P<0.05, **P<0.01, ***P<0.001 or ****P<0.0001 denotes statistical significance. An in-group variation of around 15% in parameters related to blood vessel architecture changes has been previously observed by the inventors, therefore a difference between controls and mutant mice of around 20-30% was anticipated. It was therefore expected that a group of 8 mice per condition would reveal statistical differences.
(§3) Eyes were fixed in 4% paraformaldehyde (PFA) in PBS at room temperature for 10 min, retinas were dissected, post-fixed in 4% PFA in PBS at 4° C. overnight then processed for immunostaining. Retinas were permeabilized in PBS, 1% BSA and 0.5% Triton X-100 at 4° C. overnight, rinsed in PBS, washed twice in PBlec (PBS, pH 6.8, 1% Triton-X-100, 0.1 mM CaCl2, 0.1 mM MgCl2, 0.1 mM MnCl2), and then incubated in biotinylated Griffonia simplicifolia lectin (isolectin B4) (B-1205, Vector Laboratories, 1:50) in PBlec at 4° C. overnight. After 5 washes in PBS, samples were incubated with streptavidin Cy-3 (PA43001, Sigma-Aldrich, 1:100) and with a-SMA (clone 1A4) (F3777, Sigma-Aldrich) conjugated with FITC diluted in PBS, 0.5% BSA, and 0.25% X-100 at 4° C. for 2 h. After washing, flat whole-mount retinas were mounted in DAKO medium (S3023, Dako). Complete high-resolution 3-dimensional rendering of whole-mount retinas was acquired using Laser Scanning Microscope SP5 or SP8 (Leica).

CCK2 = target: T8, CCK2 (Homo sapiens, UniProt P32239); assay: Millipore Drug Discovery Safety and Liability Panel; format: cell-based
T8 construct: purchased Millipore

PAC1 = target: T9, PAC1 (Homo sapiens, UniProt P41586); assay: as above; format: cell-based
T9 construct: Millipore

OT = target: T10, OT (Homo sapiens, UniProt P30559); assay: as above; format: cell-based
T10 construct: Millipore

[2] = system: angiogenesis in C57Bl/6J mice retinas; assay: Neonatal retinal angiogenesis model in wild-type mice; format: in vivo, mouse (C57Bl/6J); details: 2.5 mg·kg−1
Description: as §1, §2, §3

CX3CR1 = target: T11, CX3CR1 (Homo sapiens, UniProt P49238); assay: Millipore Drug Discovery Safety and Liability Panel; format: cell-based
T11 construct: purchased Millipore

V1A = target: T12, V1A (Homo sapiens, UniProt P37288); assay: as above; format: cell-based
T12 construct: Millipore

[3] = read-out: ANTAGONIST mean % inhibition
[4] = read-out: AGONIST mean % increase in activity

T3 sequence (P21918 whole entry): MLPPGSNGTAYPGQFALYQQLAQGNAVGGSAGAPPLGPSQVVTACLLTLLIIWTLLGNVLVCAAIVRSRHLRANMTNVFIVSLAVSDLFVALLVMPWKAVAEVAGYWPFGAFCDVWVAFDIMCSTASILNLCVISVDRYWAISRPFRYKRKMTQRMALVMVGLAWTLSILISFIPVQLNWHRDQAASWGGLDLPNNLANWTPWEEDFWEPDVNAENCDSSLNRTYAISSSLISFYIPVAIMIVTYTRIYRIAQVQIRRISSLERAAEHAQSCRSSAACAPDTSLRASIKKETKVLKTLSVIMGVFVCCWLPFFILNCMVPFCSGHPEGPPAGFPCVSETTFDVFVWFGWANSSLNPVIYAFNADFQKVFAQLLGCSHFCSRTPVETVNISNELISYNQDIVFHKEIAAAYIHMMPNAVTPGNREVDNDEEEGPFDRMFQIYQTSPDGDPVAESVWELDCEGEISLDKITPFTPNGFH
T10 sequence (P30559 whole entry): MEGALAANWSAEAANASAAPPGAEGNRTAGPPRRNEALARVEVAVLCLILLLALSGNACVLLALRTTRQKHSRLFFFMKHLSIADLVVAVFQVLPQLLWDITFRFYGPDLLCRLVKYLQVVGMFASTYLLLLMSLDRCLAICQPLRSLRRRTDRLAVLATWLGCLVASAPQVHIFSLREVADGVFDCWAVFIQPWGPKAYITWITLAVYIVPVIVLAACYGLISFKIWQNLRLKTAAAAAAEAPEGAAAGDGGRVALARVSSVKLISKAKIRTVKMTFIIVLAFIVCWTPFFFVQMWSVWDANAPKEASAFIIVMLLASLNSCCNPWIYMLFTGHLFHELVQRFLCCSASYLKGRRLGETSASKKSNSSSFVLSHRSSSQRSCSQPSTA
T6 sequence (P24530 27-442, species assumed): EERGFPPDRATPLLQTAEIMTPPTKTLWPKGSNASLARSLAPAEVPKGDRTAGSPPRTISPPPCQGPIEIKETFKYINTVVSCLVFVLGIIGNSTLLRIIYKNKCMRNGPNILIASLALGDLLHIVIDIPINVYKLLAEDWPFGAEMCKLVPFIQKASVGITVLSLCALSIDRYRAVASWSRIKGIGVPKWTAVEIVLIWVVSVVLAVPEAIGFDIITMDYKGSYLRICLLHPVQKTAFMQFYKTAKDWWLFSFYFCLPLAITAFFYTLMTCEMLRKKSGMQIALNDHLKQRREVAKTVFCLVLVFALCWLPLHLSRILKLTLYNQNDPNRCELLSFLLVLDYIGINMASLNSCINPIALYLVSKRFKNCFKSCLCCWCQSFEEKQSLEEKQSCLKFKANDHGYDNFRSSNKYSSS
T4 sequence (P32241 31-457): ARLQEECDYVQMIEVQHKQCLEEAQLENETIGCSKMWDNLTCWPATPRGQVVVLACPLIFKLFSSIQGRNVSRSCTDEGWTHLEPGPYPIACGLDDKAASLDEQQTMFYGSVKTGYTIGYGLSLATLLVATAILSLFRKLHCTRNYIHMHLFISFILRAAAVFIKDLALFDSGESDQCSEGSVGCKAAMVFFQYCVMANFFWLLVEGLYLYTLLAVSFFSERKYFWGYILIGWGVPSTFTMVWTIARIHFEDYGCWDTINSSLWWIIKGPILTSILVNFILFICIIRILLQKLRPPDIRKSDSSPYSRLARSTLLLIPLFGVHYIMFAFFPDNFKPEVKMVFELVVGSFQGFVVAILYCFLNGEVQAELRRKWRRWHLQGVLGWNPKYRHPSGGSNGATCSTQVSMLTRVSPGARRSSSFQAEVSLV
T8 sequence (P32239 whole entry): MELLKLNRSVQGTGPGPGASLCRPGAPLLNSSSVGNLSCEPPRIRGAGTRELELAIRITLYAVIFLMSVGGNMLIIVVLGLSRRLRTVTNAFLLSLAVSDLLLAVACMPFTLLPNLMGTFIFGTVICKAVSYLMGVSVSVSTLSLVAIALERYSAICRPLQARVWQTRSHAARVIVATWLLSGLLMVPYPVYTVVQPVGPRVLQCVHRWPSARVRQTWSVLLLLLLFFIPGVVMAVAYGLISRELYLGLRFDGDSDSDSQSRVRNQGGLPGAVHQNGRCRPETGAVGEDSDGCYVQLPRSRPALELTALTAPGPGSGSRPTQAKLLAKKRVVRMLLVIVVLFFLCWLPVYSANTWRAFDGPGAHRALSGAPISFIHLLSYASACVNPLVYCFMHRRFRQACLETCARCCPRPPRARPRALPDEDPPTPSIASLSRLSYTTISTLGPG
T9 sequence (P41586 21-468): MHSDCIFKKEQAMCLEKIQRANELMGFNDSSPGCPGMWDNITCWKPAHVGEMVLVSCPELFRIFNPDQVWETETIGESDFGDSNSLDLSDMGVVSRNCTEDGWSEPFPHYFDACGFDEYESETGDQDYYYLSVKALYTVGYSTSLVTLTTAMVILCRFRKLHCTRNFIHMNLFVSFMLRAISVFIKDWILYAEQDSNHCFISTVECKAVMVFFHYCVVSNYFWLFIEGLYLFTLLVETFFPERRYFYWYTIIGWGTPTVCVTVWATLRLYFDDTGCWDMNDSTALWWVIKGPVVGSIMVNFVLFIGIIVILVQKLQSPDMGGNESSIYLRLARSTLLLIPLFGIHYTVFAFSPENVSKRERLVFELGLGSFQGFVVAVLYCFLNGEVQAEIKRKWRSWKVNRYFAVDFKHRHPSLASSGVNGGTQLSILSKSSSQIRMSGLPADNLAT
T7 sequence (P43116 whole entry): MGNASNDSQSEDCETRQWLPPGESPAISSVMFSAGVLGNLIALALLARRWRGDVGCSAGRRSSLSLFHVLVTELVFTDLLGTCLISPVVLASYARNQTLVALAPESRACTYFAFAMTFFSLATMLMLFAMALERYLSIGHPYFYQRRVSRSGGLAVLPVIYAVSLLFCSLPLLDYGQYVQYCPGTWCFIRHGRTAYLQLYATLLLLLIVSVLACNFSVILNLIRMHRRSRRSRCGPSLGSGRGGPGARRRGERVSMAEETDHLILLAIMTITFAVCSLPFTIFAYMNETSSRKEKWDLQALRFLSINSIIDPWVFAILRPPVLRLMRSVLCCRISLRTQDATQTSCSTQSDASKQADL
T5 sequence (P28335 33-458, species assumed): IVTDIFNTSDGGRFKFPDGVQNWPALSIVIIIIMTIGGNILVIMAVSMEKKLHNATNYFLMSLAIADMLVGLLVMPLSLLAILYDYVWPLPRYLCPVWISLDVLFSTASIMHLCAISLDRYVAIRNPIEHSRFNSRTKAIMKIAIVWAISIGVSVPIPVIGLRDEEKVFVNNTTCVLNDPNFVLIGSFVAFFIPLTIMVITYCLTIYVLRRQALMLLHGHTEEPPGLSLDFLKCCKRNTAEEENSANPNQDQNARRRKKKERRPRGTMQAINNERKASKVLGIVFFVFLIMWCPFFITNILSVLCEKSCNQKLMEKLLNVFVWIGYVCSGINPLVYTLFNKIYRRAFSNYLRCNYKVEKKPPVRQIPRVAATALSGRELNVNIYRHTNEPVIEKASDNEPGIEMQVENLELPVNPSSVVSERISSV
T1 sequence (P35367 whole entry): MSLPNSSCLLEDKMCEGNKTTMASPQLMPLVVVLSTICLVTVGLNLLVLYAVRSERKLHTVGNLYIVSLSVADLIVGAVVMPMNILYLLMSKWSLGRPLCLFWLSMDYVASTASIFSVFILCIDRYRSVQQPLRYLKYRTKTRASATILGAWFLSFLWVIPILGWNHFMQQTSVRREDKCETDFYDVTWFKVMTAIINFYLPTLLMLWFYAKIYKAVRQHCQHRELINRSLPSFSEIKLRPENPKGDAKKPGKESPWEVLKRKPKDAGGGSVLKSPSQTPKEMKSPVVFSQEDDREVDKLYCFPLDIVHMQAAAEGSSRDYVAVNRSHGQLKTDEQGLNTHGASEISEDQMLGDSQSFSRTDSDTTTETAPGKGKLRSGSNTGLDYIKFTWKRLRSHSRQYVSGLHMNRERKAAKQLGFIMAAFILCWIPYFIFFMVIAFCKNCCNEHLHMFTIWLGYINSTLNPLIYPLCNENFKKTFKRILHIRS
T11 sequence (P49238 whole entry): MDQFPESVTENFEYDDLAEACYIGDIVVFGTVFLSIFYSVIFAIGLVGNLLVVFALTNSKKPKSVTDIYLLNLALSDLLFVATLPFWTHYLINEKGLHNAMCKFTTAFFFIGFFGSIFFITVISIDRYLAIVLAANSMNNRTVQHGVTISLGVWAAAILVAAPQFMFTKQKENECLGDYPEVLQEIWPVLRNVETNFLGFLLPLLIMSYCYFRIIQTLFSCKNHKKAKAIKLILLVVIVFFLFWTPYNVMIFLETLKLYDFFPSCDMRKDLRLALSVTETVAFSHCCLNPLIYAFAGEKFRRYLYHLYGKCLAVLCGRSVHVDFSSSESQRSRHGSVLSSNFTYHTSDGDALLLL
T2 sequence (P21731 whole entry): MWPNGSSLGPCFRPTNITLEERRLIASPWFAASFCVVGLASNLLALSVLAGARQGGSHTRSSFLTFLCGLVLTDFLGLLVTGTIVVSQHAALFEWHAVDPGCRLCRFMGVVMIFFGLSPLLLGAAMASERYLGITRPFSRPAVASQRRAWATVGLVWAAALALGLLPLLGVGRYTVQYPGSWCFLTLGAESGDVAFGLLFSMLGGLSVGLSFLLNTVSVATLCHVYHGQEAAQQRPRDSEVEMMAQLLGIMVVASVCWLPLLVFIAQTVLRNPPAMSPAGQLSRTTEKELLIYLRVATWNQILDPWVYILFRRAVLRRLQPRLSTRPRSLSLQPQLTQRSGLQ

In the case of CCN1C(=O)COc2nc(-c3ccc(C4(N)CC(O)C4)cc3)c(-c3ccccc3)cc21.O=C(O)C(O)C(O)C(=O)O [VAD044, 6-(4-(1-amino-3-hydroxycyclobutyl)phenyl)-1-ethyl-7-phenyl-1H-pyrido[2,3-b][1,4]oxazin-2(3H)-one L-tartrate], the activation at 10 µM (H1; H1, 10 μM, read-out: AGONIST mean % increase in activity) was -0.2%, the inhibition at 10 µM (H1; [3]) was 3.8% and the activation at 10 µM (TP; TP, 10 μM, read-out: AGONIST mean % increase in activity) was -0.5%. It also gave an inhibition at 10 µM (TP; [3]) of 0%, an activation at 10 µM (D5; [4]) of -0.8% and an inhibition at 10 µM (D5; [3]) of 35.4%. The activation at 10 µM (VPAC1; VPAC1, 10 μM, read-out: AGONIST mean % increase in activity) was -0.7%, the inhibition at 10 µM (VPAC1; [3]) was 8.5% and the pIC50 (MCF7 tumor cells) was about 7.30. The activation at 10 µM (5-HT2C; [4]) was 0.8%, the inhibition at 10 µM (5-HT2C; [3]) was 21.9% and the activation at 10 µM (ETB; ETB, 10 μM, read-out: AGONIST mean % increase in activity) was -1.1%. The inhibition at 10 µM (ETB; [3]) was 2.9%, the activation at 10 µM (EP2; EP2, 10 μM, read-out: AGONIST mean % increase in activity) was -1% and the inhibition at 10 µM (EP2; [3]) was -0.5%. For the same compound, the “prevention of AVM shunt formation” value ([1]; 2.5 mg·kg−1) was “fully prevent AVM shunt formation”, the “density of the retinal vascular network” value ([1]; Eng-iKO mice) was “normalize the density” and the “number of branch points of the Eng-iKO vascular network” value ([1]; Eng-iKO mice) was “slightly reducing”. For the same compound, the “radial expansion of the Eng-iKO vascular network” value ([1]; Eng-iKO mice) was “slightly reducing”, the “prevention of AV shunt formation” value ([1]; Eng-iKO mice, 1.25 mg·kg-1) was “not to be effective” and the “prevention of AV shunt formation” value ([1]; Eng-iKO mice, 2.5 mg·kg-1 and above, at P3 and P5) was “efficiently prevented AV shunt formation”. For the same compound, the minimal effective dose ([1]; HHT1 (Eng-iKO) mouse model) was 2.5 mg/kg, the activation at 10 µM (CCK2; CCK2, 10 μM, read-out: AGONIST mean % increase in activity) was -0.2% and the inhibition at 10 µM (CCK2; [3]) was 8.3%. The activation at 10 µM (PAC1; PAC1, 10 μM, read-out: AGONIST mean % increase in activity) was -0.6%, the inhibition at 10 µM (PAC1; [3]) was 1.1% and the activation at 10 µM (OT; [4]) was -1.2%. The inhibition at 10 µM (OT; [3]) was 29.5%, the “impact on normal angiogenesis” value [2] was “little or no impact on normal angiogenesis” and the “AGONIST mean % increase in activity” value (CX3CR1; CX3CR1, 10 μM) was 0%. The inhibition at 10 µM (CX3CR1; [3]) was 0.6%, the activation at 10 µM (V1A; V1A, 10 μM, read-out: AGONIST mean % increase in activity) was -1.5% and the inhibition at 10 µM (V1A; [3]) was 2.5%.
